Experimental data: patent publication EP1210336B1, “SUBSTITUTED BENZIMIDAZOLES AS NON-NUCLEOSIDE INHIBITORS OF REVERSE TRANSCRIPTASE” (THE UNITED STATES OF AMERICA, as represented by the …, priority 1999, dated 2001)
Where two headings read alike, the source gives them in different places.

Assays:
[1] = target: T1, HIV-1 WT RT (Human immunodeficiency virus type 1 group M subtype B, UniProt P03366); settings: reported by Pauwels et al. (TIBO) and Buckheit et al. (thiazolobenzimidazole); read-out: IC50 for rC:dG; cited from earlier work
T1 construct: purified RT protein (0.015 mg/mL) was incubated in a 100 µL reaction mixture

[2] = test system: HIV-1 isolate 4xAZT/L100I; experiment: Cytopathic cell killing assay, cross-resistance profile, infected MT-4 cells; assay type: cell-based
Summary of the method: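 Cytopathic protection assay: cells at 5 x 10^3/well infected with pre-titered HIV isolate (e.g., MOI 0.01-0.05), compound serial half-log dilutions in triplicate.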

[3] = test system: WT virus (NL4-3); experiment: microbe, parasite or virus in culture; assay type: cell-based, HIV-1; settings: for EC50: Human immunodeficiency virus 1, NL43, CEM-SS, read-out: EC50
Summary of the method: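 CEM-SS cells (5 x 10^3/well) infected with HIV-1 at an MOI giving complete killing by day 6 (e.g., 0.01-0.05), with serial half-log compound dilutions in triplicate. After 6 days at 37°C, viability read by XTT reduction at 450 nm. CIC50 derived from protection against cytopathic killing.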

[4] = Human immunodeficiency virus 1, MT4, Table 4, isolate 4xAZT/L.1001
[5] = Human immunodeficiency virus 1, MT4, Table 8, isolate 4XA7T L 1001
[6] = Human immunodeficiency virus 1, MT4, Table 9, isolate 4XAZT /L1001

For `Fc1cccc(F)c1C1SCc2nc3ccccc3n21` (centres unmarked) [TZB, 1-(2,6-difluorophenyl)-1H,3H-thiazolo[3,4-a]benzimidazole, reference compound], the IC50 [1] is given as 500 nM, the EC50 [2, 4] is given as 1700 nM and the EC50 [2, 5] is given as 1100 nM. It also gave an EC50 [2, 6] of 1100 nM.
With `Cc1cccc2c1nc(-c1c(F)cccc1F)n2Cc1c(F)cccc1F` [compound 33, 1-(2,6-difluorobenzyl)-2-(2,6-difluorophenyl)-4-methylbenzimidazole] the “cytotoxicity and anti-viral effect (summary graph)” value ([3]; Figures 10-12, result in words) was “very effective therapeutic dose”, the EC50 ([3]; Table 7, concentration reducing cell killing or virus production by 50%, HIV-1 WT) was 440 nM and the EC50 ([3]; Table 11, CEMSS/NL4-3, NRVC = reduction in viral CPE not seen (footnote)) was 440 nM. For the same compound, the therapeutic index ([3]; difference between efficacy of the drug and cellular toxicity, Figure 10) was “greater than one log in concentration”, the EC50 [2, 4] was 200 nM and the EC50 [2, 5] was 200 nM. The EC50 [2, 6] was 200 nM.
